Experimental data taken from US20090012103A1, “SUBSTITUTED HETEROCYCLIC COMPOUNDS” (priority 2007, published 2009).

How the values were obtained:
[1] = target: wild-type human cardiac sodium channel, hNav1.5 (Homo sapiens, UniProt Q14524); assay: Late INa screening assay (late sodium current, PatchXpress whole cell patch clamp); type: cell-based; details: compound at 10 μM; read-out: Late INa % blk
hERG potassium channel = hERG potassium channel (Homo sapiens, UniProt Q12809); assay: hERG screening assay (PatchXpress patch clamp, CHO cell line)
Chain of hERG potassium channel (Q12809 whole entry): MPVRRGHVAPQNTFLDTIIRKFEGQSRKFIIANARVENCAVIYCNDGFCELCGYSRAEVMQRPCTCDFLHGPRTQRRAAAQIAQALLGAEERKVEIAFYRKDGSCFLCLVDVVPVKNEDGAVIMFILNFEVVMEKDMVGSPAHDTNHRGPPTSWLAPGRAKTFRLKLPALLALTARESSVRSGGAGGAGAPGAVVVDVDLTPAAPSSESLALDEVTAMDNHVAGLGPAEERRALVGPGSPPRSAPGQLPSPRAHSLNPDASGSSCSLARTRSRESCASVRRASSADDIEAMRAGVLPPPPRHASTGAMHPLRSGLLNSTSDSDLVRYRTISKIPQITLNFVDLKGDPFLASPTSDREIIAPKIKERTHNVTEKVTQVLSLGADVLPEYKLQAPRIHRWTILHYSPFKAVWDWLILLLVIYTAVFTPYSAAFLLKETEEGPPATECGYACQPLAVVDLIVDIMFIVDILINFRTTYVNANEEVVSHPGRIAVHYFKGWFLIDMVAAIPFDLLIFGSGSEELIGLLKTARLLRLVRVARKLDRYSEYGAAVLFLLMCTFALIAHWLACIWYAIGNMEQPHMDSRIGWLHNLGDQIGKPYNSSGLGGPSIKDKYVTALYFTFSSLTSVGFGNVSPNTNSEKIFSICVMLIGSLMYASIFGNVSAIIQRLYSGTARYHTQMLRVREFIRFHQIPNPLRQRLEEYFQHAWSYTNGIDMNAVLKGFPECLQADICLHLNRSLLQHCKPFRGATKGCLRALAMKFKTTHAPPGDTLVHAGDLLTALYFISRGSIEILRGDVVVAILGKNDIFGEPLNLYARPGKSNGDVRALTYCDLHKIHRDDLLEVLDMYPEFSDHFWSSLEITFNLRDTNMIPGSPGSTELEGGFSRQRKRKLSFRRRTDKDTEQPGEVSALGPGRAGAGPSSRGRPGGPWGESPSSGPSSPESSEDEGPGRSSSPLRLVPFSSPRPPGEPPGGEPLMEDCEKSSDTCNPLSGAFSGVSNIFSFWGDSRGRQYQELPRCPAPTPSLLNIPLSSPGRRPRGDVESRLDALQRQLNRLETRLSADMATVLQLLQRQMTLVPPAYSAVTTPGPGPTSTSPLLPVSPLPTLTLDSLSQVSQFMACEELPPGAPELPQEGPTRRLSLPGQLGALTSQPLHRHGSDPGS
Method: Compounds were screened to test their activity in blocking the hERG potassium channel. The hERG channel is heterologously expressed in a CHO (Chinese Hamster Ovary) cell line. Cells are maintained with standard tissue culture procedures and stable channel expression is maintained with 500 μg/ml G418 in the culture medium. Cells are harvested for testing on the PatchXpress automated patch clamp with Accumax (Innovative Cell Technologies, San Diego, Calif.) to isolate single cells.
The following solutions are used for electrophysiological recordings. The external solution contains: 2 mM CaCl2; 2 mM MgCl2; 4 mM KCl; 150 mM NaCl; 10 mM Glucose; 10 mM HEPES (pH 7.4 with 1M NaOH, osmolarity).
hERG channels are activated when the voltage is stepped to +20 mV from the −80 mV holding potential (see FIG. 3). During a 5 second step at +20 mV, the channels activate and then largely inactivate, so the currents are relatively small. Upon returning to −50 mV from +20 mV, hERG currents transiently become much larger as inactivation is rapidly removed and then the channel closes. The first step to −50 mV for 300 ms is used as a baseline for measuring the peak amplitude during the step to −50 mV after channel activation. The peak current at −50 mV is measured both under control conditions and after addition of compound.
All compounds are prepared as 10 mM DMSO stocks in glass vials. Stock solutions are mixed by vigorous vortexing and sonication for about 2 minutes at room temperature. For testing, compounds are diluted in glass vials using an intermediate dilution step in pure DMSO and then further diluted to working concentrations in external solution. Dilutions are prepared no longer than 20 minutes before use.
After achieving the whole-cell configuration, cells are monitored for 90 seconds to assess stability and washed with external solution for 66 seconds. The voltage protocol described above is then applied to the cells every 12 seconds and throughout the whole procedure. Only cells with stable recording parameters and meeting specified health criteria are allowed to enter the compound addition procedure.
External solution containing 0.1% DMSO (vehicle) is applied to the cells first to establish the control peak current amplitude. After allowing the current to stabilize for 3 to 5 minutes, 1 μM and then 10 μM test compounds are applied. Each compound concentration is added 4 times and cells are kept in test solution until the effect of the compound reaches steady state or for a maximum of 12 minutes. […] Washout in the external solution compartment is performed until the recovery of the current reaches steady state. Data are analyzed using DataXpress, Clampfit (Molecular Devices, Inc., Sunnyvale) and Origin 7 (Originlab Corp.)

Chain of wild-type human cardiac sodium channel, hNav1.5 (Q14524 whole entry): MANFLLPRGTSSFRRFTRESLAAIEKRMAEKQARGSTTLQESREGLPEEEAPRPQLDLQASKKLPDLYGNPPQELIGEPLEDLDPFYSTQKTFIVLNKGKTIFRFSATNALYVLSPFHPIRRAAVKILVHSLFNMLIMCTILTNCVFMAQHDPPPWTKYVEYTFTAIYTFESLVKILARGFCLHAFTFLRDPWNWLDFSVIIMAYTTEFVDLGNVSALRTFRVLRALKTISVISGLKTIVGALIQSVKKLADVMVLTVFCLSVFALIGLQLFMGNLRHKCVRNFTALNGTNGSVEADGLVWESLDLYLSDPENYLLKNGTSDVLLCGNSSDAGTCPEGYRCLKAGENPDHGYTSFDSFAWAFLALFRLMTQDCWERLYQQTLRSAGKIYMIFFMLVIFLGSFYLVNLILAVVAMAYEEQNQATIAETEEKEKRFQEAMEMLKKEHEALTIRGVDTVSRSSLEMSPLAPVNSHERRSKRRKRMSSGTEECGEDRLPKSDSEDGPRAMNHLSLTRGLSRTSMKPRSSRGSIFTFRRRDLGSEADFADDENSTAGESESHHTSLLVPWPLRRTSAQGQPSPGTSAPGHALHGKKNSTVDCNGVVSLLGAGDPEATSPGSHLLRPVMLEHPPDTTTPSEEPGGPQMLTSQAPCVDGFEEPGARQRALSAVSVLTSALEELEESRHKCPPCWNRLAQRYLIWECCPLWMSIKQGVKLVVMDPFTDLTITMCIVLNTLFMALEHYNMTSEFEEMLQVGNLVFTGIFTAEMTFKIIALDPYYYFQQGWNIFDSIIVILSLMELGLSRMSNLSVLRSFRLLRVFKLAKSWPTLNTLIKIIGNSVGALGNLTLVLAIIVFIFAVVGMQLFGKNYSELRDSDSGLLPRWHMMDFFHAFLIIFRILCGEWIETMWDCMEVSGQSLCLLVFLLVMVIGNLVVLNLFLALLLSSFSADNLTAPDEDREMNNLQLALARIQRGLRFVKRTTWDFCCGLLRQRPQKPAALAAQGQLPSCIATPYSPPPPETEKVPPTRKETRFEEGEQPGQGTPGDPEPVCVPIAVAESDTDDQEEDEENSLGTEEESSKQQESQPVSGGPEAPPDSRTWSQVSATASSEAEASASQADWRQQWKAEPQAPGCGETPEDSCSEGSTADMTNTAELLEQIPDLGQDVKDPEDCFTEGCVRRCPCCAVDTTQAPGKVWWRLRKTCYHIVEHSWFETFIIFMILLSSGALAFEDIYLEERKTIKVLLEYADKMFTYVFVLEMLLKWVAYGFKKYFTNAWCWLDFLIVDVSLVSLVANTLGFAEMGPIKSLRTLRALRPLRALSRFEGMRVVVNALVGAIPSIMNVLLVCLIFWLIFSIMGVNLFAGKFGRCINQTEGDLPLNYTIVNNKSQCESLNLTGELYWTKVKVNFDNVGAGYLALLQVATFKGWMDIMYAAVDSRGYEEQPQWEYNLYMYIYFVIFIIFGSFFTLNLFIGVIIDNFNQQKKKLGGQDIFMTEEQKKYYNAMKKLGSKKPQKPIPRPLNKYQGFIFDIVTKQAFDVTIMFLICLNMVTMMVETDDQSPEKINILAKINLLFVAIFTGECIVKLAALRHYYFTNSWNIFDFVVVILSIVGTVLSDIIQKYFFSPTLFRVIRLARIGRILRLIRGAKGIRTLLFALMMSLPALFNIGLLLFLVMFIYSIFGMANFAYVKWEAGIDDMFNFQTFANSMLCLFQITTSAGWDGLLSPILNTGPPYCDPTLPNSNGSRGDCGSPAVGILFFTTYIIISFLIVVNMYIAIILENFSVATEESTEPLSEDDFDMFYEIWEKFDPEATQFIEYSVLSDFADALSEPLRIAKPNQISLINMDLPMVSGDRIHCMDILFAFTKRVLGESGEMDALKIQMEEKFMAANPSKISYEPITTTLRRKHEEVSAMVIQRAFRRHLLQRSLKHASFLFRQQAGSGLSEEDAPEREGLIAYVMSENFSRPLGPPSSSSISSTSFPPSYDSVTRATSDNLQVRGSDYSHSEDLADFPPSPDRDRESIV

## COc1ccc(COC(=O)C2=C(C)Nc3nnnn3C2c2cccc3ccccc23)cc1OC (stereo not drawn) [PT-061, 3,4-dimethoxybenzyl 5-methyl-7-(naphthalen-1-yl)-4,7-dihydrotetrazolo[1,5-a]pyrimidine-6-carboxylate]
[1]
  inhibition at 10 µM: 37.3%
hERG potassium channel; 1 μM
  hERG Patch Clamp hERG % blk: 24.0%
hERG potassium channel; 10 μM
  hERG Patch Clamp hERG % blk: 46.5%

## CC1=C(C(=O)NCc2ccccc2)C(c2ccc3ccccc3c2)n2nnnc2N1 (stereo not drawn) [PT-068, N-benzyl-5-methyl-7-(naphthalen-2-yl)-4,7-dihydrotetrazolo[1,5-a]pyrimidine-6-carboxamide]
[1]
  inhibition at 10 µM: 14.3%
hERG potassium channel; 1 μM
  hERG Patch Clamp hERG % blk: 14.0%
hERG potassium channel; 10 μM
  hERG Patch Clamp hERG % blk: 22.5%

## CCOC(=O)C1=C(C)Nc2[nH]nc(C)c2C1c1cccc2ccccc12 (stereo not drawn) [PT-074, ethyl 3,6-dimethyl-4-(naphthalen-1-yl)-4,7-dihydro-1H-pyrazolo[3,4-b]pyridine-5-carboxylate]
[1]
  inhibition at 10 µM: 27.7%
hERG potassium channel; 1 μM
  hERG Patch Clamp hERG % blk: 14.0%
hERG potassium channel; 10 μM
  hERG Patch Clamp hERG % blk: 43.0%

## COC(=O)c1ccc(-c2n[nH]c3c2C(c2cccc4ccccc24)C2=C(COC2=O)N3)cc1 (stereo not drawn) [PT-085, methyl 4-(4-(naphthalen-1-yl)-5-oxo-4,5,7,8-tetrahydro-1H-furo[3,4-b]pyrazolo[4,3-e]pyridin-3-yl)benzoate]
[1]
  inhibition at 10 µM: 9.1%
hERG potassium channel; 1 μM
  hERG Patch Clamp hERG % blk: 34.0%
hERG potassium channel; 10 μM
  hERG Patch Clamp hERG % blk: 44.5%

## CCOC(=O)C1=C(C)Nc2nccn2C1c1ccc2ccccc2c1 (stereo not drawn) [PT-086, ethyl 7-methyl-5-(naphthalen-2-yl)-5,8-dihydroimidazo[1,2-a]pyrimidine-6-carboxylate]
[1]
  inhibition at 10 µM: 38.8%
hERG potassium channel; 1 μM
  hERG Patch Clamp hERG % blk: 13.5%
hERG potassium channel; 10 μM
  hERG Patch Clamp hERG % blk: 57.5%

## N#CC1=C(N)NC2=C(C(=O)CCC2)C1c1ccc(Br)cc1 (stereo not drawn) [PT-095, 2-amino-4-(4-bromophenyl)-5-oxo-1,4,5,6,7,8-hexahydroquinoline-3-carbonitrile]
[1]
  inhibition at 10 µM: 4.9%
hERG potassium channel; 1 μM
  hERG Patch Clamp hERG % blk: 10.0%
hERG potassium channel; 10 μM
  hERG Patch Clamp hERG % blk: 24.5%

## N#CC1=C(N)OC2=C(C(=O)CC(c3ccccc3)C2)C1c1ccco1 (stereo not drawn) [PT-104, 2-amino-4-(furan-2-yl)-5-oxo-7-phenyl-5,6,7,8-tetrahydro-4H-chromene-3-carbonitrile]
[1]
  inhibition at 10 µM: 14.3%
hERG potassium channel; 1 μM
  hERG Patch Clamp hERG % blk: 18.0%
hERG potassium channel; 10 μM
  hERG Patch Clamp hERG % blk: 46.0%

## CCOC(=O)C1=C(C)NC(C)=C(C(=O)OCC)C1c1cccs1 [PT-111, diethyl 2,6-dimethyl-4-(thiophen-2-yl)-1,4-dihydropyridine-3,5-dicarboxylate]
[1]
  inhibition at 10 µM: 69.2%
hERG potassium channel; 1 μM
  hERG Patch Clamp hERG % blk: 11.5%
hERG potassium channel; 10 μM
  hERG Patch Clamp hERG % blk: 48.5%

## CCOC(=O)C1=C(C)NC(C)=C(C(=O)OCC)C1c1sc2ccccc2c1C [PT-116, diethyl 2,6-dimethyl-4-(3-methylbenzo[b]thiophen-2-yl)-1,4-dihydropyridine-3,5-dicarboxylate]
hERG potassium channel; 1 μM
  hERG Patch Clamp hERG % blk: 22.9%
hERG potassium channel; 10 μM
  hERG Patch Clamp hERG % blk: 66.0%

## CCOC(=O)C1=C(C)NC(C)=C(C(=O)OCC)C1c1cc2ccccc2o1 [PT-122, diethyl 4-(benzofuran-2-yl)-2,6-dimethyl-1,4-dihydropyridine-3,5-dicarboxylate]
[1]
  inhibition at 10 µM: 80.3%
hERG potassium channel; 1 μM
  hERG Patch Clamp hERG % blk: 15.5%
hERG potassium channel; 10 μM
  hERG Patch Clamp hERG % blk: 55.0%

## CCCC1=C(C(=O)OCC)C(c2ccc(C(=O)O)cc2)C2=C(CC(C)(C)CC2=O)N1 (stereo not drawn) [PT-133, 4-(3-(ethoxycarbonyl)-7,7-dimethyl-5-oxo-2-propyl-1,4,5,6,7,8-hexahydroquinolin-4-yl)benzoic acid]
[1]
  inhibition at 10 µM: -27.5%
hERG potassium channel; 1 μM
  hERG Patch Clamp hERG % blk: 10.0%
hERG potassium channel; 10 μM
  hERG Patch Clamp hERG % blk: 12.0%

## CCOC(=O)C1=C(C)NC2=C(C(=O)CCC2)C1c1cccc2ncccc12 (stereo not drawn) [PT-140, ethyl 2-methyl-5-oxo-1,4,5,6,7,8-hexahydro-4,5′-biquinoline-3-carboxylate]
[1]
  inhibition at 10 µM: 6.3%
hERG potassium channel; 1 μM
  hERG Patch Clamp hERG % blk: 13.5%
hERG potassium channel; 10 μM
  hERG Patch Clamp hERG % blk: 34.5%

## CCCC1=C(C(=O)OCC)C(c2ccsc2)C2=C(CC(c3ccccc3)CC2=O)N1 (stereo not drawn) [PT-149, ethyl 5-oxo-7-phenyl-2-propyl-4-(thiophen-3-yl)-1,4,5,6,7,8-hexahydroquinoline-3-carboxylate]
[1]
  inhibition at 10 µM: 71.5%
hERG potassium channel; 1 μM
  hERG Patch Clamp hERG % blk: 24.3%
hERG potassium channel; 10 μM
  hERG Patch Clamp hERG % blk: 67.0%

## CC1=C(C(=O)OCc2cccs2)C(c2cccc3ccccc23)n2nnnc2N1 (stereo not drawn) [PT-525, thiophen-2-ylmethyl 5-methyl-7-(naphthalen-1-yl)-4,7-dihydrotetrazolo[1,5-a]pyrimidine-6-carboxylate]
[1]
  inhibition at 10 µM: 67.5%
